Values quoted from earlier work in US12630504B2, “Phenethylamine derivatives, compositions, and methods of use” (CYBIN IRL LIMITED, priority 2020, dated 2026).

**Q.** With `NCCc1ccc2c(c1)OCO2` [MDPEA, 3,4-methylenedioxyphenethylamine] as the compound, how does the biological activity (due to extensive first-pass metabolism) read?
**A.** The biological activity was “biologically inactive”.

**Q.** With `COc1cc(CCN)cc(OC)c1OC` [Mescaline, 3,4,5-trimethoxyphenethylamine] as the compound, how does the “oral dose at which orally active” value (oral, only at high doses owing to low brain bioavailability) read?
**A.** The value was ~300 mg.
